Reference: patent US20250213701A1, “MEDICAMENT FOR TREATING HUMAN TUMOR BASED ON ERF3A-TARGETING PROTEOLYSIS MECHANISM” (SUZHOU DEGEN BIO-MEDICAL CO., LTD., priority 2022, published 2025)

What was measured:
Assay type in all cases: cell-based
GSPT1 (eRF3a) [1] = target: T1, GSPT1 (eRF3a) (Homo sapiens, UniProt P15170+Q96SW2); experiment: Western blot assay in PC-3 cells: GSPT1 (eRF3a); settings: different concentrations at 24 h (FIG. 9)
T1 construct: The downregulation of SRD5A3 and GSPT1 (eRF3a) proteins in PC-3 and HepG2 cells by C59; endogenous in cells; host or cells: 22Rv1, PC-3, HepG2
T1 sequence (P15170 1-637 isoform P15170-3): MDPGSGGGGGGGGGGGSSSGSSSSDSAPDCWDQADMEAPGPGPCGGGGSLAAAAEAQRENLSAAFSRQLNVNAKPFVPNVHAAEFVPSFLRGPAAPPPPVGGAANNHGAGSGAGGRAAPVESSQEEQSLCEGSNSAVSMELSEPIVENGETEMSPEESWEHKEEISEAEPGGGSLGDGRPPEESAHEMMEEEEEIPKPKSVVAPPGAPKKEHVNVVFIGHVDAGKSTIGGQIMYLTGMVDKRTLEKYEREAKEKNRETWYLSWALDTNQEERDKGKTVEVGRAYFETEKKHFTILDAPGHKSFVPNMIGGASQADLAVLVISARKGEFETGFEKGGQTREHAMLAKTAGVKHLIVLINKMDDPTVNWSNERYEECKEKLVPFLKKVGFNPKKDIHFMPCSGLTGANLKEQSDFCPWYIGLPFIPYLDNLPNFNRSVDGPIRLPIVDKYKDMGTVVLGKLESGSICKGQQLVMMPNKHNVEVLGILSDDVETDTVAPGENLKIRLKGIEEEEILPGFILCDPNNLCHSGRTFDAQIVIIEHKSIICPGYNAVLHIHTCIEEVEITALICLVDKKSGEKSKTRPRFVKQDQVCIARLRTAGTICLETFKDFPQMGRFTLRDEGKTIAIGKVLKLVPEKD
T1 sequence (Q96SW2 whole entry): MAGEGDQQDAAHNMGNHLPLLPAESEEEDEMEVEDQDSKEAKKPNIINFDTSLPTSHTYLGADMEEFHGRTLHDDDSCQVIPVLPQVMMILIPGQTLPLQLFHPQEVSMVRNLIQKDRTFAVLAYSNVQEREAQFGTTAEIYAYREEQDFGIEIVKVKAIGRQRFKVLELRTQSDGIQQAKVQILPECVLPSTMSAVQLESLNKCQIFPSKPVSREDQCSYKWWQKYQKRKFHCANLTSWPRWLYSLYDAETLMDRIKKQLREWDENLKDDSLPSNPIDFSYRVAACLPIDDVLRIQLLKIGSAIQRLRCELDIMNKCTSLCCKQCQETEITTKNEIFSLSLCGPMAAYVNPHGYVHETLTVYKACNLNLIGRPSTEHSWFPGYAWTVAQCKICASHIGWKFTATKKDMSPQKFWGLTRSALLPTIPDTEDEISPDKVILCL
T1 sequence (Q16531 whole entry partner): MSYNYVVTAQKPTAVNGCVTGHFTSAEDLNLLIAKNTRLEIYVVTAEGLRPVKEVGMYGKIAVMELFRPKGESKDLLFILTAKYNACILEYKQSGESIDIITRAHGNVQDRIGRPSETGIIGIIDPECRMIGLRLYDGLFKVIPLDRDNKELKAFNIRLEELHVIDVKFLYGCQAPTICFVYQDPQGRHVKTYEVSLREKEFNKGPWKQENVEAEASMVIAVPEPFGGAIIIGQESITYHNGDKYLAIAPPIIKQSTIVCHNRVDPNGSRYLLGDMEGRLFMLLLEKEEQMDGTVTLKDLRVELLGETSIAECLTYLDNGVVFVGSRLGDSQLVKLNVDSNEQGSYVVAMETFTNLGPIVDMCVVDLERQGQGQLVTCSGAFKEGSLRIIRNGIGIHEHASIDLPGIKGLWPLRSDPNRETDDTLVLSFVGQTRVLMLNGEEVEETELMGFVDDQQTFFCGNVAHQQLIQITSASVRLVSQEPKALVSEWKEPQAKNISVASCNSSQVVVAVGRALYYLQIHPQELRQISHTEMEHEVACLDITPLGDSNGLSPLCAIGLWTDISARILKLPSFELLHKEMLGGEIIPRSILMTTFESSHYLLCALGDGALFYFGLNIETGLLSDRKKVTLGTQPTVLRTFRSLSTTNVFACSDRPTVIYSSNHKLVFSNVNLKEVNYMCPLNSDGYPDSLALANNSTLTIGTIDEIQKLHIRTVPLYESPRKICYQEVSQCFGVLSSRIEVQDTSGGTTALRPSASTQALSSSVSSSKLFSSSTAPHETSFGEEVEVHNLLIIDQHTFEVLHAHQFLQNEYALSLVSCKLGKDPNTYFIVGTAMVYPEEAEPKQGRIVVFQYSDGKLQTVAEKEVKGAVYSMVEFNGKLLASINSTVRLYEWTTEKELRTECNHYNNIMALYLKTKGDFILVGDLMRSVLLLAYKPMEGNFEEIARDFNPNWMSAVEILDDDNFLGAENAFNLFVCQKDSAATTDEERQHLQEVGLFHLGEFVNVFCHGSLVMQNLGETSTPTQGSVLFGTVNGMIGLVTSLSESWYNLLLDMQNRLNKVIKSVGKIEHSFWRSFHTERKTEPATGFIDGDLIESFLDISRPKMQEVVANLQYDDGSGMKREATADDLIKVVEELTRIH
Source text: (§1) Example 84: Western Blot Assay of Compound C59 in 22Rv1, PC-3, and HepG2 Cells
(§2) (1) Materials: 22Rv1, PC-3, and HepG2 cell, anti-SRD5A1 antibody (ab167606), anti-SRD5A2 antibody (ab124877), anti-SRD5A3 antibody (PA5-107029), anti-androgen receptor (AR) antibody (CST, No. 5153), anti-GSPT1 antibody (Abcam, ab234433), anti-GADPH antibody (CST, No. 5174), anti-c-Myc antibody (CST, No. 8583), anti-α-tublin antibody (CST, No. 2125), anti-rabbit IgG, HRP-linked antibody (CST, No. 7074), electrophoresis device and membrane transfer device (LIUYI, BEIJING; DYCZ-24DN)
(§3) Cell seeding: 22Rv1 (Cell Bank of the Chinese Academy of Sciences, TCHu100), PC-3 (Cell Bank of the Chinese Academy of Sciences, SCSP-532) and HepG2 cells (Cell Bank of the Chinese Academy of Sciences, TCHu72) were subcultured and trypsinized to prepare 6×10^5 cells/mL suspensions, seeded on 6-well plates (3 mL/well), and cultured overnight in a cell incubator at 5% CO2 and 37° C. […]
(§4) Protein quantification: The protein was quantified using a BCA protein quantification kit. […]
(§5) Western immunoblot assay (or Western blot, WB): SDS-PAGE gel at a proper concentration was prepared according to the molecular weight of the target protein: for example, the concentration of the separation gel was 8% and the concentration of the stacking gel was 5%. The loading volume was adjusted according to the protein quantification results. […]

GSPT1 (eRF3a) [2] = target: T1, GSPT1 (eRF3a); experiment: Western blot assay in HepG2 cells: GSPT1 (eRF3a); settings: different concentrations at 24 h (FIG. 10)
Source text: as §1, §2, §3, §4, §5

DU 145 cells = experiment: Anti-proliferative toxicity of C63 in tumor cell lines (CCK8): DU 145; settings: Homo sapiens, 72 h, 3 days, read-out: Inhibition rate
Description: (§6) Example 83: Detection of Anti-Proliferative Toxicity of C63 in Some Tumor Cell Lines
DU 145 cells (purchased from the Cell Bank of the Chinese Academy of Sciences, Cat. No. SCSP-5024) were subcultured in a culture medium (MVEM medium+[…] penicillin-streptomycin dual-antibiotic solution+10% fetal bovine serum) in an incubator at 5% carbon dioxide and 37° C.
DU 145 cells were seeded at 5000 cells/well (90 μL) on a 96-well plate and cultured for 24 h.
(§7) 10 mM compound stock solutions were prepared in DMSO.
(§8) The compound stock solution was diluted with DMSO to give DMSO solutions 1-9 at concentrations of 0 μM, 2500 μM, 500 μM, 100 μM, 20 μM, 4 μM, 0.8 μM, 0.16 μM, and 0.032 μM.
(§9) 2 μL of each of solutions 1-9 was added to 98 μL of the medium to give mixed solutions 11-19 of the compound and the medium.
(§10) 10 μL of each of solutions 11-19 was added to the above cell seed solution to give a total volume of 100 μL (90 μL+10 μL).
(§11) The concentrations of the compound in the wells were 0 μM, 5.0 μM, 1.0 μM, 0.2 μM, 0.04 μM, 0.008 μM, 0.0016 μM, 0.00032 μM, and 0.000064 μM. All concentrations were in triplicate.
(§12) After the above-treated cells were cultured for 3 days, 10 μL of the CCK8 solution (DOJINDO, Cat. No. PF725) was added to each well. The plate was incubated in an incubator at 37° C. for 1-4 h and then detected on a microplate reader for the reading at 450 nm.

DLD-1 cells = experiment: Anti-proliferative toxicity of C63 in tumor cell lines (CCK8): DLD-1; settings: Homo sapiens, 72 h, 3 days, read-out: Inhibition rate
Description: as §6
DLD-1 cells (purchased from the Cell Bank of the Chinese Academy of Sciences, Cat. No. TCHu134) were subcultured in a culture medium (RPMI-1640 medium+1% penicillin-streptomycin dual-antibiotic solution+10% fetal bovine serum) in an incubator at 5% carbon dioxide and 37° C.
DLD-1 cells were seeded at 2000 cells/well (90 μL) on a 96-well plate and cultured for 24 h.
as §7, §8, §9, §10, §11, §12

| Structure (SMILES) | downregulation of GSPT1 (eRF3a) protein (Western blot) (GSPT1 (eRF3a) [1]) | downregulation of GSPT1 (eRF3a) protein (Western blot) (GSPT1 (eRF3a) [2]) | inhibition at 64 pM (DU 145 cells; 0.000064 μM) [%] | inhibition at 0.00032 µM (DU 145 cells; 0.000320 μM) [%] | inhibition at 0.0016 µM (DU 145 cells; 0.001600 μM) [%] | inhibition at 0.008 µM (DU 145 cells; 0.008000 μM) [%] | inhibition at 0.04 µM (DU 145 cells; 0.040000 μM) [%] | inhibition at 0.2 µM (DU 145 cells; 0.200000 μM) [%] | inhibition at 1 µM (DU 145 cells; 1.000000 μM) [%] | inhibition at 5 µM (DU 145 cells; 5.000000 μM) [%] | inhibition at 64 pM (DLD-1 cells; 0.000064 μM) [%] | inhibition at 0.00032 µM (DLD-1 cells; 0.000320 μM) [%] | inhibition at 0.0016 µM (DLD-1 cells; 0.001600 μM) [%] | inhibition at 0.008 µM (DLD-1 cells; 0.008000 μM) [%] | inhibition at 0.04 µM (DLD-1 cells; 0.040000 μM) [%] | inhibition at 0.2 µM (DLD-1 cells; 0.200000 μM) [%] | inhibition at 1 µM (DLD-1 cells; 1.000000 μM) [%] | inhibition at 5 µM (DLD-1 cells; 5.000000 μM) [%] |
| --- | --- | --- | --- | --- | --- | --- | --- | --- | --- | --- | --- | --- | --- | --- | --- | --- | --- | --- |
| C[C@]12C=CC(=O)N[C@@H]1CC[C@@H]1[C@@H]2CC[C@]2(C)[C@@H](C(=O)Nc3cccc(N[C@@H]4CCC[C@@H](Nc5cccc6c5C(=O)N(C5CCC(=O)NC5=O)C6=O)C4)c3)CC[C@@H]12 (stereo partly drawn) [C59, N-(3-(N—(N-(4-(2-(3-(2,6-dioxopiperidine))-isoindole-1,3-dione))-1R,3R-cyclohexanediamine))phenyl)-3-oxo-4-aza-5α-androst-1-ene-17β-carboxamide] | downregulation | downregulation | – | – | – | – | – | – | – | – | – | – | – | – | – | – | – | – |
| C[C@]12C=CC(=O)N[C@@H]1CC[C@@H]1[C@@H]2CC[C@]2(C)[C@@H](C(=O)Nc3cccc(N[C@@H]4CCC[C@@H](Nc5cccc6c5C(=O)N([C@H]5CCC(=O)NC5=O)C6=O)C4)c3)CC[C@@H]12 [C63, N-(3-(N—(N-(4-(2-(3S-(2,6-dioxopiperidine))-isoindole-1,3-dione))-1R,3R-cyclohexanediamine))phenyl)-3-oxo-4-aza-5α-androst-1-ene-17β-carboxamide] | – | – | 22.1 | 20.5 | 22.7 | 48.4 | 60.9 | 74.3 | 81.9 | 82.4 | 0.83 | 7.21 | 40.5 | 67.5 | 76.3 | 78.3 | 79.7 | 83.1 |
